From patent publication US11111251B2, “Positive allosteric modulators of the muscarinic acetylcholine receptor M1” (Vanderbilt University, priority 2016, dated 2021) come the findings set out here.

The experiment deals with T1, human mAChR M1 (Homo sapiens, UniProt P11229).
T1 sequence (P11229 1-460): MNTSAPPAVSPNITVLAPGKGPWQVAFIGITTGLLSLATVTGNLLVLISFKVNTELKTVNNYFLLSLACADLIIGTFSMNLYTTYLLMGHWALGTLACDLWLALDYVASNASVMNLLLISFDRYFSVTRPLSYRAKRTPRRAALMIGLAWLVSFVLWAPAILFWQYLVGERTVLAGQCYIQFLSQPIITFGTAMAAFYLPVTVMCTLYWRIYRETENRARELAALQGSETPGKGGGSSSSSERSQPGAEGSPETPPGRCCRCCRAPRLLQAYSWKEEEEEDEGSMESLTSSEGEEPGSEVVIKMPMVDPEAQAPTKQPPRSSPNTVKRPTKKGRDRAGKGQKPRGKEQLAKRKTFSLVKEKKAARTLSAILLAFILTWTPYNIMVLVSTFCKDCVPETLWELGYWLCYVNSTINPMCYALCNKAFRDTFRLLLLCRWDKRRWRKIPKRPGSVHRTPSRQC
Nature of the experiment: mAChR M1 cell-based functional assay: calcium mobilization, positive allosteric modulator mode (increase in EC20 acetylcholine response). Conditions: for Emax: read-out: Human M1 Emax (%). Summed up:
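PAM potency reflects the concentration-dependent increase in calcium response to an EC20 acetylcholine challenge, given 144 s into a 300 s read after compound addition at 4 s (EC80 follows at 230 s). Cells were hM1-expressing CHO-K1, loaded 50 min with Fluo-4 AM. Curves used 11 points at 1:3 dilutions and four-parameter logistic fitting.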

The mark [1] stands for this setting: Table 2, human M1, read-out: Human M1 EC50.

Read-outs that look alike come from different tables or passages of the source. Bounds are passed on as bounds.

What is called EC50 is the concentration needed to bring the measured effect to its halfway point. A word on the Emax: it is the greatest response seen or fitted, relative to the assay's reference. Turning to `O=C(N[C@H]1CCCNC1)c1cc(Cc2ccc(-n3cccn3)cc2)c2sccc2n1` [Compound 290, N-[(3S)-3-piperidyl]-7-[(4-pyrazol-1-ylphenyl)methyl]thieno[3,2-b]pyridine-5-carboxamide], the EC50 under setting [1] was determined as 5340 nM. Further, for the setting “Table 2, human M1”, the maximal effect (Emax) came to 65.3%.
Regarding `CO[C@H]1CCCC[C@@H]1NC(=O)c1cc(Cc2ccc(-c3csc(C)n3)cc2)c2sccc2n1` [Compound 195, N-[(1S,2S)-2-methoxycyclohexyl]-7-[[4-(2-methylthiazol-4-yl)phenyl]methyl]thieno[3,2-b]pyridine-5-carboxamide], under setting [1], the concentration for a half-maximal effect (EC50) is 2390 nM. In addition, the Emax (Table 2, human M1) was 81.8%.
On to `Cc1ccc(Oc2cc(C(=O)NC3CCOCC3)nc3ccsc23)cn1` [Compound 20, 7-[(6-methyl-3-pyridyl)oxy]-N-tetrahydropyran-4-yl-thieno[3,2-b]pyridine-5-carboxamide], for which the EC50 (Table 1, mAChR M1 cell-based functional assay, PAM mode, species not given, read-out: EC50) is over 10000 nM.
In the case of `CC(NC(=O)c1cc(Cc2ccc(-n3cccn3)cc2)c2sccc2n1)C1CCCO1` (centres unmarked) [Compound 446, 7-[(4-pyrazol-1-ylphenyl)methyl]-N-(1-tetrahydrofuran-2-ylethyl)thieno[3,2-b]pyridine-5-carboxamide], under setting [1], the EC50 turned out to be 922 nM. Besides, where the note is “Table 2, human M1”, the Emax was found to be 72.8%.
With `CC1CC(NC(=O)c2cc(Cc3ccc(-c4nccs4)cc3)c3sccc3n2)CC(C)O1` (centres unmarked) [Compound 386, N-(2,6-dimethyltetrahydropyran-4-yl)-7-[(4-thiazol-2-ylphenyl)methyl]thieno[3,2-b]pyridine-5-carboxamide], the concentration for a half-maximal effect (EC50) under setting [1] was 1910 nM. In addition, the maximal response (Emax) (Table 2, human M1) came out at 66.1%.
With `Cc1nc(-c2ccc(Cc3cc(C(=O)N[C@H]4CCOC[C@@H]4O)nc4ccsc34)cc2)cs1` [Compound 192, N-[(3R,4S)-3-hydroxytetrahydropyran-4-yl]-7-[[4-(2-methylthiazol-4-yl)phenyl]methyl]thieno[3,2-b]pyridine-5-carboxamide], the EC50 under setting [1] worked out at 15.3 nM. Further, the Emax (Table 2, human M1) was determined as 78.7%.
In the case of `Cc1nc(-c2ccc(Cc3cc(C(=O)N[C@@H]4CCC[C@H]4O)nc4ccsc34)cc2)co1` [Compound 159, N-[(1R,2R)-2-hydroxycyclopentyl]-7-[[4-(2-methyloxazol-4-yl)phenyl]methyl]thieno[3,2-b]pyridine-5-carboxamide], the EC50 under setting [1] was 141 nM. Moreover, the Emax (Table 2, human M1) was 80.5%.
For the compound `Cc1ccc([C@H](F)c2cc(C(=O)N[C@H]3CCCC[C@@H]3O)nc3ccsc23)cn1` [Compound 233], the EC50 under setting [1] came to 161 nM. The Emax (Table 2, human M1) came out at 67.8%.
Take `Cc1nc(-c2ccc(Cc3cc(C(=O)N[C@@H]4CC[C@H]4O)nc4ccsc34)cc2)cs1` [Compound 176, N-[(1R,2R)-2-hydroxycyclobutyl]-7-[[4-(2-methylthiazol-4-yl)phenyl]methyl]thieno[3,2-b]pyridine-5-carboxamide]: under setting [1], the concentration for a half-maximal effect (EC50) was 362 nM. Moreover, the Emax (Table 2, human M1) came to 93.2%.
For the compound `O=C(N[C@H]1CCOC1)c1cc(Cc2ccc(-n3cccn3)cc2)c2sccc2n1` [Compound 278, 7-[(4-pyrazol-1-ylphenyl)methyl]-N-[(3S)-tetrahydrofuran-3-yl]thieno[3,2-b]pyridine-5-carboxamide], under setting [1], the EC50 stood at 485 nM. Where the note is “Table 2, human M1”, the Emax turned out to be 73.4%.
On to `Cc1csc2c(Cc3ccc(-n4cccn4)cc3)cc(C(=O)NC3CCN(C)CC3)nc12` [Compound 124, 3-methyl-N-(1-methyl-4-piperidyl)-7-[(4-pyrazol-1-ylphenyl)methyl]thieno[3,2-b]pyridine-5-carboxamide], for which the EC50 under setting [1] amounted to 2460 nM. Further, the Emax (Table 2, human M1) is 64.4%.
As for `O=C(N[C@@H]1CCOC1)c1cc(Cc2ccc(-n3cccn3)cc2)c2sccc2n1` [Compound 277, 7-[(4-pyrazol-1-ylphenyl)methyl]-N-[(3R)-tetrahydrofuran-3-yl]thieno[3,2-b]pyridine-5-carboxamide], under setting [1], the EC50 amounted to 627 nM. Besides, the Emax (Table 2, human M1) turned out to be 67.9%.
